Measurements published in BindingDB's records for doi:10.1002/cbic.200800538 (University of Toronto, 2009).

Target: T1, Alpha-mannosidase 2 (Drosophila melanogaster, UniProt Q24451)
T1 sequence (Q24451 whole entry): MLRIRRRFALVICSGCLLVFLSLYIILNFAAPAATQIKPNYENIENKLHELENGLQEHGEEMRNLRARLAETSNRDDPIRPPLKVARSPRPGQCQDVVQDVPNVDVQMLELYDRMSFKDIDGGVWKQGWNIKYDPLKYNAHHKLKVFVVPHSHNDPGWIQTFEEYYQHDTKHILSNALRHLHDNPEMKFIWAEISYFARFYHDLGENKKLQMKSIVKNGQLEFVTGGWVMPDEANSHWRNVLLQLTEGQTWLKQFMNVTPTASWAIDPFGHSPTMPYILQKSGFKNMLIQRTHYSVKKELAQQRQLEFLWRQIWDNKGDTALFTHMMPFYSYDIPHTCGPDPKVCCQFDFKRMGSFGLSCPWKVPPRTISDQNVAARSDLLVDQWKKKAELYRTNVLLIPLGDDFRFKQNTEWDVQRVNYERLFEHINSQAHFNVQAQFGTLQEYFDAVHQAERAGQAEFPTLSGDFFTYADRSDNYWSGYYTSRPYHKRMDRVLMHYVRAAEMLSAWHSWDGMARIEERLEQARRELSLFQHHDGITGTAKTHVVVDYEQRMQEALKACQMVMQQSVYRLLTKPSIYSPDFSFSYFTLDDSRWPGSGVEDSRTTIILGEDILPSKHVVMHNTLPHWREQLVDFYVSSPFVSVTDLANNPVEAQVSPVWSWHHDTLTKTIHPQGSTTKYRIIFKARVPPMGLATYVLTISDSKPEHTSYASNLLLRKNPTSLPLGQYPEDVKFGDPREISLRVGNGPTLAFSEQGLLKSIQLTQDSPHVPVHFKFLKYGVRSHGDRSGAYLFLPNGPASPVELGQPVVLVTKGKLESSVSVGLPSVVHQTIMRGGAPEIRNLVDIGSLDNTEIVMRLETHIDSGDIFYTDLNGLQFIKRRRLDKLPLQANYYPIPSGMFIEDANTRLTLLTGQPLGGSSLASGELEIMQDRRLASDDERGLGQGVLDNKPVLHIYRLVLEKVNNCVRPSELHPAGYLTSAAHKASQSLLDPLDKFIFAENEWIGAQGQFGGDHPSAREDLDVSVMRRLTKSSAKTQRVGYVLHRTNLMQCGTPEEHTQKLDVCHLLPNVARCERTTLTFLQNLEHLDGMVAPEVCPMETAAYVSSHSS
Assay: Inhibition Assay
Description: The rate of hydrolysis catalyzed by drosophila golgi alpha-mannosidase II (dGMII)and in the presence of different concentration of inhibitor was measured fluorometrically and Ki values were determined from Dixon plots.

Ki [µM]	IC50 [µM]	Compound
0.15	–	C[S+]([O-])[C@@H]1[C@@H](N)[C@@H](O)[C@@H](O)[C@H]1O (some centres not stated) [Mannostatin B, 2]
–	100	N[C@H]1[C@@H](O)[C@@H](O)[C@@H](O)[C@H]1O [Mannostatin analogue, 4b]
